Here are results for 31 compounds from patent US20240246992A1, “MACROCYCLIC LRRK2 KINASE INHIBITORS” (LES LABORATOIRES SERVIER, priority 2021, published 2024).

Each structure is given as a SMILES string. Bounds are passed on as bounds.

human recombinant LRRK2 protein, sequence (Q5S007 whole entry): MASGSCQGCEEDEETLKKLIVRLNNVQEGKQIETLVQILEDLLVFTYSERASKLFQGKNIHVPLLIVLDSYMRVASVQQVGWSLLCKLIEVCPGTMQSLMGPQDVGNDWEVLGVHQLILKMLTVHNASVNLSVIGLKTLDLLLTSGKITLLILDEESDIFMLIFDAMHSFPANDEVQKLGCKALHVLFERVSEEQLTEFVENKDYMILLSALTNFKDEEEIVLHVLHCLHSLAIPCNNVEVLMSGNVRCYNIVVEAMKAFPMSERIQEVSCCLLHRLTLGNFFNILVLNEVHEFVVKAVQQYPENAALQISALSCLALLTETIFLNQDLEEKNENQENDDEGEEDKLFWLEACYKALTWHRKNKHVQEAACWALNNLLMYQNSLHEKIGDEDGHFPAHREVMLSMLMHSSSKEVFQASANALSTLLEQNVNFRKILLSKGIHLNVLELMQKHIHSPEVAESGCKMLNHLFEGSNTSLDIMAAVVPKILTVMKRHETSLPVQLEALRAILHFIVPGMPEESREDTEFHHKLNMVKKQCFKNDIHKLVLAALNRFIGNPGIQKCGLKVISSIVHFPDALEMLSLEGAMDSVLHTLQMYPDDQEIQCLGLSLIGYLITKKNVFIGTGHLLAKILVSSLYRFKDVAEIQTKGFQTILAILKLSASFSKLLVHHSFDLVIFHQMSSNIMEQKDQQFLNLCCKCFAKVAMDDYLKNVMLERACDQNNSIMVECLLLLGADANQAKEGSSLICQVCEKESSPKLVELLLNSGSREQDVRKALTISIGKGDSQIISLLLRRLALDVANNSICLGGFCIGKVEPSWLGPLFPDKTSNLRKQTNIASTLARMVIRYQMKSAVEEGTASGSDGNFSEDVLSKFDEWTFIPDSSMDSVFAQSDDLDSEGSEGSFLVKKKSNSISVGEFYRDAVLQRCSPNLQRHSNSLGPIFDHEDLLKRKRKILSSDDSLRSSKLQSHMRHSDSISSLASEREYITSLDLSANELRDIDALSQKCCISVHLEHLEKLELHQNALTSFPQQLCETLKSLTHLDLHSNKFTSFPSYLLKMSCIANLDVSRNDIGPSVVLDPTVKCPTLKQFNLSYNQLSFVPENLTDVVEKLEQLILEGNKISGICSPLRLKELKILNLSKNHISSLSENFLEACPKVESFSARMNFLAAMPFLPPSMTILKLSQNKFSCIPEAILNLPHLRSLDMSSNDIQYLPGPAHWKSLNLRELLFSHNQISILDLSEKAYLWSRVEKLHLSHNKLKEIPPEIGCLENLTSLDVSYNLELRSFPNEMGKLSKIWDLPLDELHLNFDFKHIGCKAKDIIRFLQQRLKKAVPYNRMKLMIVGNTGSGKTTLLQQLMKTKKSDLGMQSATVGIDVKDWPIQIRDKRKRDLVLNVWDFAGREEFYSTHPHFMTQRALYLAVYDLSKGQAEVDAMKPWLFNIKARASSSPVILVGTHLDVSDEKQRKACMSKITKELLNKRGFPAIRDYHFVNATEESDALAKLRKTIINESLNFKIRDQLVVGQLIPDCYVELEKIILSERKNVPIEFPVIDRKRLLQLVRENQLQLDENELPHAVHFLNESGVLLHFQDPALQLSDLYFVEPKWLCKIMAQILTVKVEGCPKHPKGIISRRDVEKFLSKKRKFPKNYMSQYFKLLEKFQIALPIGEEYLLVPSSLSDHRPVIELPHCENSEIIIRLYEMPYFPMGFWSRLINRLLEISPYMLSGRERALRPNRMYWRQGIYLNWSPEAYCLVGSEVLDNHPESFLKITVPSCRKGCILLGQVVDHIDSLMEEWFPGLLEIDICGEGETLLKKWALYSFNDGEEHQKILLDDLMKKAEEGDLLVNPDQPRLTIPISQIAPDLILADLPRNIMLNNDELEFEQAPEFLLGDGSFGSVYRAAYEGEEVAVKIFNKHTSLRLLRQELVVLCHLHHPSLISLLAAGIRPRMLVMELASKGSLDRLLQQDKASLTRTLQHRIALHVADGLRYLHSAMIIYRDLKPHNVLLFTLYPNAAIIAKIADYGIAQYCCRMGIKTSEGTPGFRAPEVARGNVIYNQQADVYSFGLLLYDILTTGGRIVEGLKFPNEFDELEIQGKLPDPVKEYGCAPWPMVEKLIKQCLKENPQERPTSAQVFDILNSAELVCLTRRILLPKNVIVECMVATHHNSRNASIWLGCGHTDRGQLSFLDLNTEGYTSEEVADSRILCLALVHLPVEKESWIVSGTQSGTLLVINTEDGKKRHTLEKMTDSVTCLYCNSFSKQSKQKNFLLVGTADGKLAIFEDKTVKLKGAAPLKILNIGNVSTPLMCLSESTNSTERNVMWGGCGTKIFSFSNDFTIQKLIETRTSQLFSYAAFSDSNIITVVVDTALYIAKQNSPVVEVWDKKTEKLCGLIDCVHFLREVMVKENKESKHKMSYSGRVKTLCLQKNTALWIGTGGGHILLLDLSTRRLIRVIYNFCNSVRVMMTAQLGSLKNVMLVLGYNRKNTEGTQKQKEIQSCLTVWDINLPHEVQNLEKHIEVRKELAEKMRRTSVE

The target of the test is human recombinant LRRK2 protein (Homo sapiens, UniProt Q5S007). Kind of test: LRRK2 kinase activity assay (ADP-Glo, LRRKtide peptide). The format is biochemical. The conditions noted are these: human recombinant LRRK2 wt, LRRKtide peptide and ATP, 1 h at 37° C. Summed up:
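ADP-Glo luminescence read-out of a peptide assay: compound, ATP and LRRKtide substrate combined with recombinant human LRRK2 and incubated at 37 °C for 1 h. Ten-point data, N=2, curve-fitted to IC50.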
As to `C[C@H]1COc2ccc3[nH]nc(c3c2)-c2cccc(c2)OCC(=O)N[C@@H]1C` [Example 215, (11R,12R)-11,12-dimethyl-7,14-dioxa-10,19,20-triazatetracyclo[13.5.2.1^2,6.0^18,21]tricosa-1(20),2,4,6(23),15(22),16,18(21)-heptaen-9-one], the IC50 was under 100 nM. `C[C@@H]1COCCOCCn2cc(cc2C#N)-c2n[nH]c3ccc(cc23)O1` [Example 82, (13R)-13-methyl-8,11,14-trioxa-5,19,20-triazatetracyclo[13.5.2.1^2,5.0^18,21] tricosa-1(20),2(23),3,15(22),16,18(21)-hexaene-4-carbonitrile]: the half-inhibitory concentration (IC50) is under 100 nM. In the case of `C[C@H]1CCOCCCc2csc(n2)-c2n[nH]c3ccc(cc23)O1` [Example 48, (12S)-12-methyl-9,13-dioxa-3-thia-18,19,22-triazatetracyclo[12.5.2.1^2,5.0^17,20]docosa-1(19),2(22),4,14(21),15,17(20)-hexaene], the IC50 is under 10 nM. As for `C[C@H]1CCOC[C@H](C)Oc2cncc(c2)-c2n[nH]c3ccc(cc23)O1` [Example 20, (8S,13S)-8,13-dimethyl-7,10,14-trioxa-4,19,20-triazatetracyclo[13.5.2.1^2,6. 0^18,21]tricosa-1(20),2(23),3,5,15(22),16,18(21)-heptaene], the IC50 was under 100 nM. Consider `C[C@H]1COCCCOc2nc(cc(N3CCCC3)n2)-c2n[nH]c3ccc(cc23)O1` [Example 19, (13S)-13-methyl-4-(pyrrolidin-1-yl)-7,11,14-trioxa-5,19,20,23-tetraazatetra cyclo[13.5.2.1^2,6.0^18,21]tricosa-1(20),2(23),3,5,15(22),16,18(21)heptaene], for which the IC50 is under 10 nM. The result for `C[C@@H]1CCNC(=O)COc2cncc(c2)-c2n[nH]c3ccc(cc23)O1` [Example 162, (13R)-13-methyl-7,14-dioxa-4,10,19,20-tetraazatetracyclo[13.5.2.1^2,6.0^18,21]tricosa-1(20),2,4,6(23),15(22),16,18(21)-heptaen-9-one] reads under 100 nM; that for `O=C1COc2cc(cc(N3CCOCC3)c2)-c2n[nH]c3ccc(cc23)OCCCN1` [Example 207, 4-(morpholin-4-yl)-7,14-dioxa-10,19,20-triazatetracyclo [13.5.2.1^2,6.0^18,21]tricosa-1(20),2(23),3,5,15,17,21-heptaen-9-one], under 10 nM. Then `C[C@H]1COCCO[C@H](C)c2cncc(c2)-c2n[nH]c3ccc(cc23)O1` [Example 10, (7R,13S)-7,13-dimethyl-8,11,14-trioxa-4,19,20-triazatetracyclo[13.5.2.1^2,6.0^18,21]tricosa-1(20),2,4,6(23),15(22),16,18(21)-heptaene], with under 100 nM; and `C[C@@H]1COCCOCCn2cc(cn2)-c2n[nH]c3ccc(cc23)O1` [Example 50, (13R)-13-methyl-8,11,14-trioxa-4,5,19,20-tetraazatetracyclo[13.5.2.1^2,5.0^18,21]tricosa-1(20),2(23),3,15(22),16,18(21)-hexaene], with under 10 nM; and `CN1CCCOc2ccc3[nH]nc(c3c2)-c2cc(C#N)cc(c2)OCC1=O` [Example 191, 10-methyl-9-oxo-7,14-dioxa-10,19,20-triazatetracyclo [13.5.2.1^2,6.0^18,21]tricosa-1(20),2,4,6(23),15,17,21-heptaene-4-carbonitrile], with under 100 nM.

For the compound `C[C@@H]1COc2ccc3[nH]nc(c3c2)-c2cccc(c2)OCC(=O)N[C@H]1C` [Example 168, (11S,12S)-11,12-dimethyl-7,14-dioxa-10,19,20-triazatetracyclo[13.5.2.1^2,6.0^18,21]tricosa-1(20),2(23),3,5,15(22),16,18(21)-heptaen-9-one], the IC50 was under 100 nM. `c1cc2cc(c1)[C@H]1C[C@@H]1CNCCCOc1ccc3[nH]nc-2c3c1` [Example 165, (7S,9S)-15-oxa-11,20,21-triazapentacyclo[14.5.2.1^2,6.0^7,9.0^19,22]tetracosa-1(21),2(24),3,5,16(23),17,19(22)-heptaene]: the IC50 is under 1000 nM. Regarding `c1cc2[nH]nc3c2cc1NCCCOCCOc1cncc-3c1` [Example 4, 7,10-dioxa-4,14,19,20-tetraazatetracyclo[13.5.2.1^2,6.0^18,21]tricosa-1(20),2(23), 3,5,15(22),16,18(21)-heptaene], the half-maximal inhibitory concentration (IC50) was under 10 nM. The result for `Cc1ccc2cc1OCC(=O)NCCCOc1ccc3[nH]nc-2c3c1` [Example 140, 5-methyl-7,14-dioxa-10,19,20-triazatetracyclo[13.5.2.1^2,6.0^18,21] tricosa-1(20),2,4,6(23),15,17,21-heptaen-9-one] reads under 10 nM; that for `C[C@H]1CCOC[C@H](C)Oc2nccc(n2)-c2n[nH]c3ccc(cc23)O1` [Example 46, (8S,13S)-8,13-dimethyl-7,10,14-trioxa-5,19,20,23-tetraazatetracyclo [13.5.2.1^2,6.0^18,21]tricosa-1(20),2(23),3,5,15(22),16,18(21)-heptaene], under 100 nM; that for `c1cc2[nH]nc3c2cc1OCCCOCCCn1ncc-3n1` [Example 74, 9,13-dioxa-4,5,18,19,22-pentaazatetracyclo[12.5.2.1^2,5.0^17,20]docosa-1(19), 2(22),3,14(21),15,17(20)-hexaene], under 10 nM. For the compound `CC1CNCCCOc2ccc3[nH]nc(c3c2)-c2cc(cc(N3CCOCC3)c2)O1` (single isomer, unassigned) [Example 178, (8R) or (8S)-8-methyl-4-(morpholin-4-yl)-7,14-dioxa-10,19,20-triazatetracyclo[13.5.2.1^2,6.0^18,21]tricosa-1(20),2,4,6(23),15,17,21-heptaene], the IC50 is under 10 nM. Take `CN1CCCNc2ccc3[nH]nc(c3c2)-c2cncc(c2)OCC1=O` [Example 190, 10-methyl-7-oxa-4,10,14,19,20-pentaazatetracyclo[13.5.2.1^2,6.0^18,21]tricosa-1(20),2,4,6(23),15,17,21-heptaen-9-one]: the IC50 was under 100 nM. For `c1cc2[nH]nc3c2cc1OCCCNCCOc1cc-3cc(C2CCCOC2)c1` (stereo not shown) [Example 149, 4-(oxan-3-yl)-7,14-dioxa-10,19,20-triazatetracyclo[13.5.2.1^2,6.0^18,21]tricosa-1(20),2(23),3,5,15,17,21-heptaene], the IC50 is under 10 nM. The result for `O=C1COc2cc(cc(C(F)(F)F)c2)-c2n[nH]c3ccc(cc23)OCCCN1` [Example 185, 4-(trifluoromethyl)-7,14-dioxa-10,19,20-triazatetracyclo [13.5.2.1^2,6.0^18,21]tricosa-1(20),2,4,6(23),15,17,21-heptaen-9-one] reads under 10 nM; that for `C[C@@H]1COCCOCCn2ccc(n2)-c2n[nH]c3ccc(cc23)O1` [Example 83, (13R)-13-methyl-8,11,14-trioxa-5,19,20,23-tetraazatetracyclo[13.5.2.1^2,5.0^18,21]tricosa-1(20),2(23),3,15(22),16,18(21)-hexaene], under 1000 nM; that for `O=C1COc2cc(ccc2F)-c2n[nH]c3ccc(cc23)OCCCN1` [Example 138, 5-fluoro-7,14-dioxa-10,19,20-triazatetracyclo[13.5.2.1^2,6.0^18,21]tricosa-1(20),2,4,6(23),15,17,21-heptaen-9-one], under 100 nM.

Consider `O=C1COc2cncc(c2)-c2n[nH]c3ccc(cc23)OCCCN1` [Example 136, 7,14-dioxa-4,10,19,20-tetraazatetracyclo[13.5.2.1^2,6.0^18,21]tricosa-1(20),2,4,6(23),15,17,21-heptaen-9-one], for which the IC50 is under 10 nM.

On to `CC(C)Oc1cc2cc(c1)-c1n[nH]c3ccc(cc13)OCCCN(C)CCO2` [Example 239, 10-methyl-4-(propan-2-yloxy)-7,14-dioxa-10,19,20-triazatetracyclo[13.5.2.1^2,6.0^18,21]tricosa-1(20),2,4,6(23),15,17,21-heptaene], for which the IC50 is under 100 nM. The result for `C[C@H]1CCn2cc(cn2)-c2n[nH]c3ccc(cc23)OCCCO1` [Example 37, (8S)-8-Methyl-9,13-dioxa-4,5,18,19-tetraazatetracyclo[12.5.2.1^2,5.0^17,20] docosa-1(19),2(22),3,14(21),15,17(20)-hexaene] reads under 10 nM; that for `O=C1COc2cc(C3=CCCOC3)cc(c2)-c2n[nH]c3ccc(cc23)OCCCN1` [Example 210, 4-(5,6-dihydro-2H-pyran-3-yl)-7,14-dioxa-10,19,20-triazatetracyclo[13.5.2.1^2,6.0^18,21]tricosa-1(20),2(23),3,5,15,17,21-heptaen-9-one], under 10 nM. The result for `C[C@H]1COCC[C@H](C)Oc2ccc3[nH]nc(c3c2)-c2cnn(c2)C1` [Example 52, (7R,12S)-7,12-dimethyl-9,13-dioxa-4,5,18,19-tetraazatetracyclo[12.5.2.1^2,5.0^17,20]docosa-1(19),2(22),3,14(21),15,17(20)-hexaene] reads under 10 nM; that for `O=C1COc2cncc(c2)-c2n[nH]c3ccc(cc23)OCCN1` [Example 199, 7,13-dioxa-4,10,18,19-tetraazatetracyclo[12.5.2.1^2,6.0^17,20] docosa-1(19),2(22),3,5,14(21),15,17(20)-heptaen-9-one], under 100 nM; that for `C[C@@H]1COCCn2cc(cn2)-c2n[nH]c3ccc(cc23)OCCO1` [Example 70, (10R)-10-methyl-8,11,14-trioxa-4,5,19,20-tetraazatetracyclo[13.5.2.1^2,5.0^18,21]tricosa-1(20),2(23),3,15(22),16,18(21)-hexaene], under 100 nM. With `Cc1cc2[nH]nc3c2cc1OCCCNC(=O)COc1cncc-3c1` [Example 187, 16-methyl-7,14-dioxa-4,10,19,20-tetraazatetracyclo[13.5.2.1^2,6.0^18,21]tricosa-1(20),2(23),3,5,15(22),16,18(21)-heptaen-9-one], the IC50 is under 100 nM. `CC1CCNCCOc2cncc(c2)-c2n[nH]c3ccc(cc23)O1` (stereo not shown) [Example 159, 13-methyl-7,14-dioxa-4,10,19,20-tetraazatetracyclo[13.5.2.1^2,6.0^18,21]tricosa-1(20),2,4,6(23),15,17,21-heptaene]: the IC50 was under 10 nM.
